The source of these data is patent US20020123485A1, “Epoxy steroidal aldosterone antagonist and beta-adrenergic antagonist combination therapy for treatment of congestive heart failure” (priority 2000, published 2002).

SMILES strings stand for the structures.

Data set [1] relates to myocardial fibrosis in animal models. To be noted: cited from earlier work.
The test system of data set [2] is rats made hypertensive by renal artery clip. Put plainly: Assay C: hypertensive rat model. Type of data set: in vivo. To be noted: combination of beta-adrenergic antagonist and eplerenone versus either component alone; 12 and 24 weeks. From the text: Male rats are made hypertensive by placing a silver clip with an aperture of 240 microns on the left renal artery, leaving the contralateral kidney untouched. Sham controls undergo the same procedure but without attachment of the clip. One week prior to the surgery, animals to be made hypertensive are divided into separate groups and drug treatment is begun. […] After 12 and 24 weeks, systolic and diastolic blood pressure, left ventricular end diastolic pressure, left ventricular dP/dt, and heart rate are evaluated. The hearts are removed, weighed, measured and fixed in formalin. Collagen content of heart sections are evaluated using computeried image analysis of picrosirius stained sections.

The target in another data set is T1, progesterone receptor (Homo sapiens, UniProt P06401).
T1 sequence (P06401 1-933): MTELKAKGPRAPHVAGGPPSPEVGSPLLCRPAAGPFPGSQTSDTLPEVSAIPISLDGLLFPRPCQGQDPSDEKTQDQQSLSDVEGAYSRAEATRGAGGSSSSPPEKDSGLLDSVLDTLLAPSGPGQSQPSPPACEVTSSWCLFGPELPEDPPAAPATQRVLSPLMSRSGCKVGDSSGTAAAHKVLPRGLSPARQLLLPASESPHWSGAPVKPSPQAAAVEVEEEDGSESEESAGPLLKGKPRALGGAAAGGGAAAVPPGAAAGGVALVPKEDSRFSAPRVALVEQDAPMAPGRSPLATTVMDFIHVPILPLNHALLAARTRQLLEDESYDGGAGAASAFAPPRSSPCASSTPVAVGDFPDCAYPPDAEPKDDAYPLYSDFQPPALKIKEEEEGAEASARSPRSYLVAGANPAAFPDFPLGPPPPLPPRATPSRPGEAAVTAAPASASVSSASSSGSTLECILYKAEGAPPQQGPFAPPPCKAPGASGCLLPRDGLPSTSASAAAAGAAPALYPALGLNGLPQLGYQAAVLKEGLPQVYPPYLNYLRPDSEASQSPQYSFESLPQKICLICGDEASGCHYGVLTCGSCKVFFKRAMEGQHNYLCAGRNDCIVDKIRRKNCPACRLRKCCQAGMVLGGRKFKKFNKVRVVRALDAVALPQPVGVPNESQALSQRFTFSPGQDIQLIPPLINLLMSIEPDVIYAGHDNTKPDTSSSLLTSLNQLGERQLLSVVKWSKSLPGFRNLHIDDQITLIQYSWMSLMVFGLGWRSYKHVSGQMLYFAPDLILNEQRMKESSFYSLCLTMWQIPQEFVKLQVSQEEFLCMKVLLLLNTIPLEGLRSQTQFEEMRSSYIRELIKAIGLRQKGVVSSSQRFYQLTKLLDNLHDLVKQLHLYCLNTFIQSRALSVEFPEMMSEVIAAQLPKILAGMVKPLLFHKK
Put plainly: binding affinity for the progesterone receptor relative to spironolactone.

Data set [3] has as its system patients with mild to moderate hypertension. Put plainly: Example 19 clinical study: eplerenone versus placebo co-administered with a calcium-channel blocker. The class given is in vivo, human.
Excerpt: This multicenter, randomized, double-blind, placebo-controlled, placebo run-in, parallel group trial involving a minimum of 120 randomized patients with hypertension (seated diastolic blood pressure [seDBP] ≧95 mmHg and <110 mmHg and seated systolic BP [seSBP] <180 mmHg while taking a CCB) will consist of a one- to two-week pretreatment screening period followed by a two- to four-week single-blind placebo run-in period and an 8-week double-blind treatment period. Eligible patients will be patients currently receiving a CCB as part of their antihypertensive medication. […] The dose will not be changed for patients with adequate BP control. […] If the dose has been increased at Week 2, the patient will be reassessed at Week 6. […] If BP is uncontrolled at Week 6 and the dose has been increased at Week 2 or Week 4, the patient must be withdrawn from the study. If symptomatic hypotension (i.e., lightheadedness, dizziness, or syncope associated with low BP) occurs at any time during the study, or if DBP is ≧110 mmHg or SBP is ≧180 mmHg at any time during the trial, the patient must be withdrawn. Patients will receive study medication for a total of 8 weeks.
The study will consist of a one- to two-week pretreatment screening period followed by a two- to four-week single-blind placebo run-in treatment period, prior to randomization to an eight-week double-blind treatment period.
Eligible patients will be either currently receiving a CCB alone, or receiving a CCB as part of their antihypertensive medication. […] The dose will not be changed for patients with adequate BP control. […] If the dose has been increased at Week 2, the patient will be reassessed at Week 6. The dose of study medication will not be changed for patients with adequate BP control. […] If BP is uncontrolled at Week 6 and the dose has been increased at Week 2 or Week 4, the patient must be withdrawn from the study. The dose of study medication will not be changed for patients with adequate BP control. If symptomatic hypotension (i.e., lightheadedness, dizziness, or syncope associated with low BP) occurs at any time during the study, or if DBP is ≧110 mmHg or SBP is ≧180 mmHg at any time during the study, the patient must be withdrawn. Patients will receive study medication for a total of eight weeks.
Patients will return to the clinic for evaluations at Weeks 0, 2, 4, 6, 8, and 9. Heart rate, BP, adverse events and concomitant medication will be assessed at each visit. Hematology and biochemistry evaluations and urinalysis for safety will be at Weeks 0, 8, and 9. Serum potassium levels will be determined at Weeks 0, 2, 4, 6, 8, and 9. Plasma renin, serum aldosterone, and plasma cortisol will be determined at Weeks 0 and 8. A 12-lead electrocardiogram and physical examination will be done at screening and at Week 9.
All randomized patients with at least one post-baseline assessment will be included in the efficacy analysis (intent-to-treat population). In each analysis, missing values will be imputed using the last observation carried forward (LOCF) method. The analysis of safety will focus on all randomized patients who took at least one dose of study medication (safety population).
BP evaluations will be analyzed at each visit using two-way analysis of covariance (ANCOVA) with the baseline measurement as the covariate and treatment and center as factors. The response variable will be the change from baseline. […]
Data set [4] deals with rats with ligated left anterior descending coronary artery. As to the kind of experiment: Assay D: myocardial infarction rat model. Type of data set: in vivo. The note with it: combination of beta-adrenergic antagonist and eplerenone versus either component alone; six weeks. From the text:
Male rats are anesthetized and the heart is exteriorized following a left sided thoracotomy. The left anterior descending coronary artery is ligated with a suture. The thorax is closed and the animal recovers. Sham animals have the suture e passed through without ligation. One week prior to the surgery, animals to undergo infarction are divided into separate groups and drug treatment is begun. […] After six weeks, systolic and diastolic blood pressure, left ventricular end diastolic pressure, left ventricular dP/dt, and heart rate are evaluated. The hearts are removed, weighed, measured and fixed in formalin. Collagen content of heart sections are evaluated using computerized image analysis of picrosirius stained sections.

Where [5] appears, read: CCB and eplerenone compared to CCB and placebo.
[6] abbreviates: eight weeks, eplerenone and CCB versus CCB and placebo.

Regarding `CC(=O)S[C@@H]1CC2=CC(=O)CC[C@]2(C)[C@H]2CC[C@@]3(C)[C@@H](CC[C@@]34CCC(=O)O4)[C@H]12` [spironolactone], the myocardial fibrosis entry in data set [1] is “prevents myocardial fibrosis”.

Turning to `COC(=O)[C@@H]1CC2=CC(=O)CC[C@]2(C)[C@@]23O[C@@H]2C[C@@]2(C)[C@@H](CC[C@@]24CCC(=O)O4)[C@H]13` [eplerenone, Pregn-4-ene-7,21-dicarboxylic acid, 9,11-epoxy-17-hy-droxy-3-oxo-, γ-lactone, methyl ester, (7α, 11α, 17β)-], the cardiac performance entry in data set [2] is on record as “improvments in cardiac performance”. Further, the “binding affinity for the progesterone receptor, % that of spironolactone” value at progesterone receptor was “less than 1%”. In addition, in data set [3] (setting [5]), the active renin levels result is “greater increase” and the aldosterone levels entry is “greater increase”. In addition, in data set [3] (setting [6]), the “change in mean diastolic blood pressure” value is on record as “greater for the dual therapy group, compared to monotherapy, but this difference did not reach statistical significance” and the systolic blood pressure entry is “significant reduction”. Further, in data set [3] (eplerenone added to CCB therapy), the serious adverse events entry was “no serious adverse events reported”. In data set [4], the cardiac performance entry is recorded as “improvements in cardiac performance”.
